According to the Kinase Knowledgebase extract (Sharma et al. 2016):

Molecular target: EGFR (UniProt P00533)
Sequence (P00533 whole entry, looked up): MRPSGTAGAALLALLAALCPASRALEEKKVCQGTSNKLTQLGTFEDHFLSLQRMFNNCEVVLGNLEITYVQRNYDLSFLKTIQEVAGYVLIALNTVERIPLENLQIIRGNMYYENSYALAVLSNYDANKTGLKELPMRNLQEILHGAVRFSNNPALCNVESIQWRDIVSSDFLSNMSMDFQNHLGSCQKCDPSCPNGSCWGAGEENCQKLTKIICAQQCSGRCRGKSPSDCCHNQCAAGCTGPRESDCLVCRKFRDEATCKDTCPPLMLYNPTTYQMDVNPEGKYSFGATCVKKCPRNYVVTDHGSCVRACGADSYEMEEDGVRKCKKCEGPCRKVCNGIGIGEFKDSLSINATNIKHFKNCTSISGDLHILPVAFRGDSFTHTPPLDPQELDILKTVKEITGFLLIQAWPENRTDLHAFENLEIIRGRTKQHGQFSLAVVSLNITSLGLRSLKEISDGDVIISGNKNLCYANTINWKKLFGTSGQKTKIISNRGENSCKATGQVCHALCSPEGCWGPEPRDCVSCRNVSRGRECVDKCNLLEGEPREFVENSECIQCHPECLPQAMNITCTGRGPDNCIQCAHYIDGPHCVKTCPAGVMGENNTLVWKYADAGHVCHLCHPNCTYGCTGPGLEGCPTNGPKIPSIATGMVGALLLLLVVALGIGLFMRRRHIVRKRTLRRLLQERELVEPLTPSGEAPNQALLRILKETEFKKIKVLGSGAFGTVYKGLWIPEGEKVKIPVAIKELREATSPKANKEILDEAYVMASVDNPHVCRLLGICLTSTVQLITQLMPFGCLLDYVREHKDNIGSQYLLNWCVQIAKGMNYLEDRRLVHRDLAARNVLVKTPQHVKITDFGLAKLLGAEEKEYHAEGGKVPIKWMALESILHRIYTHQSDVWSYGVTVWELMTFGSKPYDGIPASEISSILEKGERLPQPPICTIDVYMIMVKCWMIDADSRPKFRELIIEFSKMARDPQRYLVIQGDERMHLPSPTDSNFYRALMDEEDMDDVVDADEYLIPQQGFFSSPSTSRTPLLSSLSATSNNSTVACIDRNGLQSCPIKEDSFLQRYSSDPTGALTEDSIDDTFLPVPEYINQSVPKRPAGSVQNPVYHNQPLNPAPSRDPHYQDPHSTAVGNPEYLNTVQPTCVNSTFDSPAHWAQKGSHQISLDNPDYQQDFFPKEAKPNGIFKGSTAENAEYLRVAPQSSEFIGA

SMILES	IC50 [nM]
CCN1CCC(Nc2ccc3c(c2)/C(=C(/c2ncc[nH]2)c2ccc(C(F)(F)F)cc2F)C(=O)N3)CC1	50 to 500
CCN1CCC(Nc2ccc3c(c2)/C(=C(\c2ccc(C)cc2)c2nc4cc(OC)ccc4[nH]2)C(=O)N3)CC1	500 to 5000
CCN1CCC(Nc2ccc3c(c2)/C(=C(/c2ncc[nH]2)c2cccc(F)c2F)C(=O)N3)CC1	50 to 500
COCCN1CCC(Nc2ccc3c(c2)/C(=C(\c2ccc(F)cc2)c2nc4ccccc4[nH]2)C(=O)N3)CC1	500 to 5000
COCCN1CCC(Nc2ccc3c(c2)/C(=C(\c2ccc(F)cc2)c2ncc[nH]2)C(=O)N3)CC1	> 5000
COCCN1CCC(Nc2ccc3c(c2)/C(=C(\c2ccc(C(F)(F)F)c(F)c2)c2ncc[nH]2)C(=O)N3)CC1	> 5000
CCN1CCC(Nc2ccc3c(c2)/C(=C(\c2ccc(F)cc2)c2nc(C)c[nH]2)C(=O)N3)CC1	50 to 500
COCCN1CCC(Nc2ccc3c(c2)/C(=C(\c2ccccc2)c2nc4cc(Cl)ccc4[nH]2)C(=O)N3)CC1	> 5000
CCN1CCC(Nc2ccc3c(c2)/C(=C(\c2cccc(Cl)c2)c2nc4ccccc4[nH]2)C(=O)N3)CC1	50 to 500
COCCN1CCC(Nc2ccc3c(c2)/C(=C(\c2cccc(OC)c2)c2nc4ccccc4[nH]2)C(=O)N3)CC1	500 to 5000
CCN1CCCC(Nc2ccc3c(c2)/C(=C(\c2ccccc2)c2nc4cc(OC)ccc4[nH]2)C(=O)N3)C1 (stereo unspecified)	500 to 5000
CCN1CCC(Nc2ccc3c(c2)/C(=C(\c2ccc(OC)cc2)c2ncc[nH]2)C(=O)N3)CC1	500 to 5000
COCCN1CCC(Nc2ccc3c(c2)/C(=C(\c2ccc(F)c(F)c2)c2ncc[nH]2)C(=O)N3)CC1	> 5000
CCN1CCC(Nc2ccc3c(c2)/C(=C(\c2cccc(N)c2)c2nc4ccccc4[nH]2)C(=O)N3)CC1	500 to 5000
CCN1CCC(Nc2ccc3c(c2)/C(=C(/c2nc(C)c[nH]2)c2ccc(Cl)cc2F)C(=O)N3)CC1	< 50
COc1ccc2[nH]c(/C(=C3\C(=O)Nc4ccc(NC5CC(C)(C)NC(C)(C)C5)cc43)c3ccccc3)nc2c1	500 to 5000
O=C1Nc2ccc(NC3CCN(CCN4CCCC4)CC3)cc2/C1=C(\c1cccc(F)c1)c1ncc[nH]1	> 5000
COCCN1CCC(Oc2ccc3c(c2)/C(=C(\c2cc(F)cc(F)c2)c2nc4ccccc4[nH]2)C(=O)N3)CC1	500 to 5000
CCN1CCC(Oc2ccc3c(c2)/C(=C(\c2ccccc2)c2nc4cc(OC)ccc4[nH]2)C(=O)N3)CC1	500 to 5000
CCN1CCC(Oc2ccc3c(c2)/C(=C(\c2cccc(Cl)c2)c2nc4ccccc4[nH]2)C(=O)N3)CC1	500 to 5000
O=C1Nc2ccc(NC3CCN(CCN4CCOCC4)CC3)cc2/C1=C(\c1cccc(F)c1)c1ncc[nH]1	> 5000

SMILES	IC50 [nM]
COCCN1CCC(Nc2ccc3c(c2)/C(=C(\c2ccc(F)c(Cl)c2)c2ncc[nH]2)C(=O)N3)CC1	> 5000
CCN1CCC(Nc2ccc3c(c2)/C(=C(\c2ccc(C(F)(F)F)c(F)c2)c2ncc[nH]2)C(=O)N3)CC1	50 to 500
COCCN1CCC(Nc2ccc3c(c2)/C(=C(\c2cccc(F)c2)c2nc(-c4ccccc4)c[nH]2)C(=O)N3)CC1	50 to 500
CCN1CCC(Nc2ccc3c(c2)/C(=C(\c2cc(F)cc(F)c2)c2nc4cc(F)ccc4[nH]2)C(=O)N3)CC1	50 to 500
CCN1CCC(Nc2ccc3c(c2)/C(=C(/c2ncc[nH]2)c2ccccc2F)C(=O)N3)CC1	50 to 500
CCN1CCC(Nc2ccc3c(c2)/C(=C(\c2ccccc2)c2nc(CCN4C(=O)c5ccccc5C4=O)c[nH]2)C(=O)N3)CC1	500 to 5000
CCN1CCC(N(C)c2ccc3c(c2)/C(=C(\c2cccc(Cl)c2)c2nc4ccccc4[nH]2)C(=O)N3)CC1	500 to 5000
CCCc1ccc(/C(=C2/C(=O)Nc3ccc(NC4CCN(CCOC)CC4)cc32)c2ncc[nH]2)cc1	50 to 500
CCN1CCC(Nc2ccc3c(c2)/C(=C(/c2nc(C)c[nH]2)c2cc(F)c(Cl)cc2Cl)C(=O)N3)CC1	50 to 500
CCN1CCC(Nc2ccc3c(c2)/C(=C(\c2ccc(F)c(F)c2)c2ncc[nH]2)C(=O)N3)CC1	500 to 5000
CCN1CCC(Nc2ccc3c(c2)/C(=C(\c2cccc(F)c2)c2ncn[nH]2)C(=O)N3)CC1	> 5000
CCN1CCC(Nc2ccc3c(c2)/C(=C(\c2cccc(C(F)(F)F)c2)c2ncc[nH]2)C(=O)N3)CC1	500 to 5000
COCCN1CCC(Nc2ccc3c(c2)/C(=C(\c2cc(F)cc(F)c2)c2nc4ccccc4[nH]2)C(=O)N3)CC1	50 to 500
O=C1Nc2ccc(NC3CC4CCC(C3)N4)cc2/C1=C(\c1ccccc1)c1nc2ccccc2[nH]1 (stereo unspecified)	500 to 5000
CCN1CCC(Nc2ccc3c(c2)/C(=C(\c2ccc(C(F)(F)F)c(F)c2)c2nc(C)c[nH]2)C(=O)N3)CC1	< 50
CCN1CCC(Nc2ccc3c(c2)/C(=C(\c2cccc(Cl)c2)c2ncc[nH]2)C(=O)N3)CC1	50 to 500
CCOC(=O)c1[nH]c(/C(=C2\C(=O)Nc3ccc(NC4CCN(CCOC)CC4)cc32)c2cccc(F)c2)nc1C	> 5000
CCN1CCC(Nc2ccc3c(c2)/C(=C(\c2ccc(F)c(Cl)c2)c2nc(C)c[nH]2)C(=O)N3)CC1	50 to 500
CCN1CCC(Nc2ccc3c(c2)/C(=C(/c2ncc[nH]2)c2ccc(F)cc2F)C(=O)N3)CC1	50 to 500
CCN1CCC(Nc2ccc3c(c2)/C(=C(\c2ccc(C(F)(F)F)cc2)c2nc(C)c[nH]2)C(=O)N3)CC1	50 to 500
